Active and inactive are the calls of the source.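 The calls were made as follows: active = compounds giving half or more protection of infected cells from virus-caused growth loss, again on retest; inactive = the rest.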 Where a SMILES comes first, the peptide text is derived from it. The star is where a group is joined. Boc = CC(C)(C)OC(=O)*
Tested on: CEM cells HIV-1 protection, formazan growth assay
Test: NCI AIDS Antiviral Assay
Conditions: for IC50: measured here: growth of uninfected CEM cells
Procedure, shortened: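 Protection of CEM cells against HIV-1 measured as cell growth via soluble formazan read-out, with five concentrations tested on both infected and uninfected cells; failure to protect may reflect toxicity.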

SMILES | EC50 | IC50 | outcome
CCn1c(SCC(=O)NNC(=S)Nc2ccc(F)cc2)nc2ccccc2c1=O | > 200 µM | 129 µM | –
Cc1nc2ccccc2c(=O)n1-c1ccccc1 | > 1050 µM | 631 µM | –
Nc1nc(N)nc(-c2ccccc2-c2nc(N)nc(N)n2)n1 | > 200 µM | > 200 µM | –
COc1ccc(NS(=O)(=O)c2ccc(NC(NC(=O)CC(C)C)(C(F)(F)F)C(F)(F)F)cc2)nn1 | > 200 µM | 191 µM | –
O=C1Oc2ccccc2C1C/C(=N\Nc1ccccc1)c1ccccc1O (stereo not given) | > 93.3 µM | 79.4 µM | –
O=C(NCCCCCN1CCC2(CCCCC2)CC1)C(C1CCCCC1)C1CCCCC1 | > 100 µM | 9.33 µM | –
CCCCC1(N=[N+]=[N-])C(=O)c2cccc3c2N(CCC3)C1=O (stereo not given) | > 200 µM | > 200 µM | –
CN(Cc1cnc2nc(N)nc(N)c2n1)c1ccc(C(=O)NC(CCC(=O)NC(P(=O)(O)O)P(=O)(O)O)C(=O)O)cc1 (stereo not given) | > 200 µM | 11.2 µM | –
CN(C)C=Nc1nc(=O)n(C2CCC(CO)O2)cc1F (stereo not given) | 0.0676 µM | 95.5 µM | –
Cc1nc(-c2ccc([N+](=O)[O-])cc2)cn2c1nc1ccccc12 | 457 µM | 501 µM | –
NC(=O)CNC(=O)CCCCC1CCSS1 (stereo not given) | 51.3 µM | > 200 µM | –
S=c1[nH]nc(Cn2c3ccc(Br)cc3c3nc4ccccc4nc32)n1C1CCCCC1 | > 200 µM | 51.3 µM | –
Nc1ccc(Sc2c3ccccc3nc3ccccc23)cc1 | > 17.4 µM | 9.55 µM | –
CS1(=O)=CC(=O)CC(c2ccccc2)C1 (stereo not given) | > 1120 µM | > 1120 µM | –
CS(=O)(=O)Oc1cccc(/C=N/N=C(\N)NO)c1 | > 214 µM | 36.3 µM | –
Cc1c(Cl)ccc2c1NC(=O)C2(O)CC(=O)c1ccc(Cl)cc1Cl (stereo not given) | > 0.708 µM | > 0.708 µM | –
CCOC(=O)C(CC(C)C)NC(=O)C(Cc1ccccc1)NC(=O)CNC(=O)OC(C)(C)C (stereo not drawn) (Boc-Gly-Phe-Leu-OEt; configuration not given here) | > 200 µM | 8.51 µM | –
O=C(/C(=C\C(=O)c1cccs1)c1ccsc1)c1ccc(Br)cc1 | – | – | inactive
Nc1ncnc2c1ncn2C1OC(CCP(=O)(O)O)C(O)C1O (stereo not given) | > 100 µM | > 100 µM | –
Cc1csc2nc3c(cnn3C)c(=S)n12 | > 200 µM | 38.9 µM | –
C=C=C(C)C(=O)N(C(C)C)C(C)C | > 200 µM | > 200 µM | –
O=c1cc(N2CCOCC2)n2ccccc2n1 | > 200 µM | > 200 µM | –

SMILES | EC50 | IC50 | outcome
CN(C(=O)C1=CCC2(CC1)OCCO2)c1ccccc1I | > 200 µM | > 200 µM | –
O=C(NS(=O)(=O)Nc1ccc(Cl)cc1)OCc1ccc(Cl)cc1Cl | > 200 µM | 34.7 µM | –
CC1SC2=NC3=C(c4ccccc4C3=O)C(c3ccc(Br)cc3)N2C1=O (stereo not given) | > 32.4 µM | > 32.4 µM | –
CCC1C(=O)OCc2c1cc1n(c2=O)C(CC)c2c-1nc1ccccc1c2Cl (stereo not given) | > 10 µM | 4.68 µM | –
C=CCNC(=O)/C=C\C(=O)O | > 1620 µM | > 1620 µM | –
COC1(OC)CCCCC2c3cccc(OC(C)=O)c3C21OC(C)=O (stereo not given) | 72.4 µM | 214 µM | –
CCOP(=O)(CC(=O)C1CC1)OCC | – | – | inactive
COC(=O)[C@H]1C=C[C@@H](C)n2c(=O)c3cc4ccccc4cc3c(=O)n21 | > 21.4 µM | > 21.4 µM | –
CCCOc1csc([C@H]2CCC3[C@@H]4CC=C5C[C@@H](OC(C)=O)CC[C@]5(C)C4CC[C@@]32C)n1 (stereo not given in full) | > 55 µM | > 55 µM | –
O=S(=O)(c1ccc(Cl)c(Cl)c1)c1ccc(Cl)c(Cl)c1 | > 200 µM | > 200 µM | –
O=Cc1ccc(-c2ccc(-c3ccc(CO)s3)o2)s1 | – | – | inactive
CCCc1cc(=O)oc2c3c(c4c(c12)OC(C)(C)[C@@H](O)[C@@H]4O)O[C@@H](C)[C@H](C)[C@@H]3O | > 200 µM | 89.1 µM | –
CC(=O)Cc1cc(=O)c2c(C)cc(O)c(C3OC(CO)C(O)C(O)C3O)c2o1 (stereo not given) | 31.6 µM | 316 µM | –
O=C(CCCN1CCC2(CC1)CC(=O)N(N1CCOCC1)C2=O)c1ccc(F)cc1 | > 200 µM | > 200 µM | –
C#CC1(O)CCC2C3CCc4cc(Oc5nc(F)nc(-c6c7ccccc7c7sc8ccccc8n67)n5)ccc4C3CC[C@@]21C (stereo not given in full) | > 200 µM | 115 µM | –
OCc1c[te]c(-c2ccccc2)c1 | – | – | inactive
O=c1ssc2ccccc12 | > 200 µM | 120 µM | –
CC1(C)CC(=O)c2c(N)n[nH]c2C1 | 11.2 µM | > 200 µM | –
CCOC(=O)C1=C(OC(OCC)C(C)[Se]c2ccccc2)CCC1 (stereo not given) | > 46.8 µM | 42.7 µM | –
COc1ccc2oc(=O)c(CC=C(C)C)c(O)c2c1C | > 200 µM | > 100 µM | –
OC1OC(c2ccc[nH]2)C(F)(F)C(F)(F)C1(F)F (stereo not given) | > 200 µM | 67.6 µM | –
O=C(O)c1cc(=O)c2c([nH]c3ccccc32)s1 | – | – | inactive

SMILES | EC50 | IC50 | outcome
C=C1C(=O)OC2CC(C)C3CC(O)OC(OCC)C3(C)CC12 (stereo not given) | > 83.2 µM | 15.5 µM | –
COC(=O)C1C(O)CCC2CN3CCc4c([nH]c5ccccc45)C3CC21 (stereo not given) | > 200 µM | 70.8 µM | –
Cc1ccc(SC(CCC(Sc2ccc(C)cc2)Sc2ccc(C)cc2)Sc2ccc(C)cc2)cc1 | – | – | inactive
Oc1cc(Cc2ccccc2)c(Cc2ccccc2)cc1O | > 200 µM | 34.7 µM | –
O=C([O-])c1ccc2c(c1)-c1nc-2nc2[n-]c(nc3nc(nc4[n-]c(n1)c1ccc(C(=O)[O-])cc41)-c1ccc(C(=O)[O-])cc1-3)c1ccc(C(=O)[O-])cc21.[Gd+3].[K+] | > 45.7 µM | > 45.7 µM | –
CC(C)C1=C[C@@]23CCC4C(C)(C)CCC[C@]4(C(=O)O2)C3=CC1=O (stereo not given in full) | > 43.7 µM | > 43.7 µM | –
FC(F)(Oc1ccc2ccccc2c1)c1nc2ccccc2o1 | > 200 µM | 25.7 µM | –
CC1(C)CCc2cc3c(cc2O1)OC(C)(C)CC3=O | – | – | inactive
CSc1c(C#N)c(=O)n(N)c2n[nH]c(C)c12 | > 200 µM | > 200 µM | –
CCC1CN2CCc3cc(OC)c(OC)cc3C2CC1CC1c2cc(OC)c(OC)cc2CCN1C(=O)C1CCCN1 (stereo not given) | – | – | inactive
CCN(C(C)=O)c1cnc(/C=N/NC(N)=S)c2ccccc12 | > 200 µM | 2.57 µM | –
Cc1ccccc1N1C(=O)C2C=CC(n3[nH]c(=O)n(Cc4ccccc4)c3=O)CC2C1=O (stereo not given) | > 219 µM | > 219 µM | –
CCCc1cc(-c2ccc(-c3cc(CCC)c(C=O)[nH]3)s2)[nH]c1C=O | > 5.62 µM | 1.62 µM | –
CC1OC(O[C@@H]2C=C3CC[C@@H]4[C@H](CC[C@]5(C)[C@@H](c6ccc(=O)oc6)CC[C@]45O)[C@@]3(C)CC2)C(O)C(OC2OC(CO)C(O)C(O)C2O)C1O (stereo not given in full) | > 0.02 µM | 0.00295 µM | –
O=C(Nc1ccc(N=C(Nc2ccccc2)c2ccccc2)cc1)c1ccc(C(=O)Nc2ccc(N=C(Nc3ccccc3)c3ccccc3)cc2)cc1 | > 200 µM | 18.2 µM | –
C=C(Br)CNC(=O)NCCN1CCOCC1 | > 200 µM | > 200 µM | –
O=S(Cc1cc2c(cc1-c1ccccc1)OCO2)c1ccccc1 (stereo not given) | > 269 µM | 9.55 µM | –
CC(=O)Oc1c2ccsc2cc2ccsc12 | > 75.9 µM | 3.31 µM | –
COc1ccc(/C=C(\C#N)c2ccc(OC)c(OC)c2)cc1 | > 2 µM | 0.257 µM | –
CCOC(=O)C(CSSCC(NC(C)=O)C(=O)OCC)NC(C)=O (stereo not given) | 81.3 µM | 141 µM | –
COc1ccc(OC)c(/C=C/c2cnnc3ccccc23)c1 | > 64.6 µM | 3.16 µM | –
O=C(/C=C1/NC(=O)CS1)Nc1ccccc1 | > 380 µM | 182 µM | –

SMILES | EC50 | IC50 | outcome
CC[C@]1(Cc2ccc(OC)c(OC)c2)C=[N+]([O-])O[C@H](OC2CCCC2(c2ccccc2)c2ccccc2)[C@@H]1OC(=O)c1ccccc1 (stereo not given in full) | > 200 µM | 1.07 µM | –
c1cc2nc(c1)CSCCCCCCCCSC2 | > 35.5 µM | > 35.5 µM | –
CSc1nc(NC2OCC(O)C(O)C2O)c(N)c(=O)[nH]1 (stereo not given) | – | – | inactive
O=c1[nH]c(Nc2cccc(Br)c2)nc2nc[nH]c12 | > 200 µM | > 100 µM | –
COc1cc(/C=C/c2nc(NC(=S)Nc3ccccc3)nnc2C)cc(OC)c1OC | > 200 µM | 13.8 µM | –
CC1=C(C(=O)Nc2ccccc2)C(c2ccc(Cl)c(Cl)c2)C(C(=O)Nc2ccccc2)=C(C)N1 | > 10.7 µM | > 10.7 µM | –
CCCCC1CC(c2cccc([N+](=O)[O-])c2)=NO1 (stereo not given) | > 15.1 µM | > 15.1 µM | –
COc1ccc2cc1Oc1ccc(cc1)CC1c3c(cc(OC)c4c3Oc3cc5c(cc3O4)CCN[C@@H]5C2)CCN1C (stereo not given in full) | – | – | inactive
O=C1CCC(c2ccccc2)(C2(c3ccccc3)CCC(=O)O2)O1 (stereo not given) | > 200 µM | 151 µM | –
CCOC(=O)C1CCN(C(=O)c2ccccc2)c2scc(-c3ccccc3)c2C1=O (stereo not given) | > 100 µM | 13.8 µM | –
O=C(NO)NCCCl | > 200 µM | > 200 µM | –
O=C(CC(C(=O)c1ccco1)c1ccco1)c1ccco1 (stereo not given) | > 200 µM | 145 µM | –
Cc1cc(Cl)c(O)c(-c2cc(-c3ccc([N+](=O)[O-])cc3)c3c(N)[nH]c(=O)nc3n2)c1 | > 200 µM | 5.25 µM | –
Cc1cc(NS(=O)(=O)c2ccc(N)cc2)sn1 | > 200 µM | > 200 µM | –
COC(=O)CCCCC(c1cc(Cl)c(OC)c(C(=O)OC)c1)c1cc(Cl)c(OC)c(C(=O)OC)c1 | > 200 µM | 13.5 µM | –
COc1ccccc1NC(=O)CC(=O)N1N=C(N(c2ccccc2)c2ccccc2)CC1c1ccccc1 (stereo not given) | – | > 100 µM | inactive
O=C1/C(=C\c2cccc(Oc3ccccc3)c2)SC(c2ccccc2)N1c1ccccc1 (stereo not given) | > 20 µM | 0.0933 µM | –
O=C1CC2C3CC4CC(C3)CC2(C4)O1 (stereo not given) | > 200 µM | > 200 µM | –
O=c1[nH]c2ccccc2nc1/C=C(\O)C(F)F | > 200 µM | > 200 µM | –
CN(CCc1ccccn1)C(=S)N/N=C(\c1ccccc1)c1ccccn1 | > 0.2 µM | 0.0132 µM | –
COC(=O)C(=O)C(C(=O)C(=O)Nc1ccccc1C(N)=O)c1nc2ccc(Cl)cc2[nH]c1=O (stereo not given) | > 75.9 µM | > 75.9 µM | –
O=C(O)c1cc2c(cc1CC(Cc1ccccc1)C(=O)O)CCC2 (stereo not given) | – | – | inactive

Source: PubChem BioAssay AID179 (DTP/NCI, 2004)
